{"source": "patent US8545834B2", "about": "“G-substrate for the treatment and prevention of parkinson's disease” (The McLean Hospital Corporation, priority 2007, dated 2013)", "system": "A9 DA neurons", "assay_type": "in vivo, rat", "text": "Retrograde 6-OHDA lesioning within the striatum is a well-established method of creating progressive degeneration of A9 DA neurons. The loss of TH immunoreactivity reflects actual loss of DA neurons (Sauer, 1994).\nThe in vivo neuroprotective effects of G-substrate against 6-OHDA-induced toxicity was examined by injecting 6-OHDA into the corpus striatum of rats which previously had either G-substrate or control genes (empty vector or YFP) delivered to the midbrain using the lentivirus as described above. 6-OHDA induced approximately an 80% loss of TH-positive neurons in the midbrain (FIG. 12Q) and complete loss of TH immunoreactivity in the striatum (data not shown). The severity of the striatal insult in this paradigm precluded our ability to usefully measure protection of striatal nerve terminals. […] Furthermore, most of the surviving TH-positive neurons in lenti G-substrate-transduced rats were strongly G-substrate-positive (FIGS. 12G-12L).\nRats received two 2.75 μl stereotaxic injections of either lenti-empty vector+lenti-eGFP (n=19), lenti-G substrate+lenti-eGFP (n=19), or lenti-YFP (n=14) and delivered at a rate of 0.2 μl/min using microinfusion pumps (Stoelting Co, Wood Dale, Ill.) with 10 min wait times after each injection. Lenti-eGFP was added to each condition, excluding the YFP condition, to serve as an exogenous marker for surgical targeting (0.5 μl of the total 5.5 μl A volume). SN injection coordinates were as follows: site 1: AP −4.8, ML −2.0, DV −7.2; site 2: AP −5.5, ML −1.8, DV −7.2; and tooth bar set at −3.3. Virus titers (p24) were as follows: G substrate, 60 ng/μl; empty vector, 60 ng/μl; eGFP, 83 ng/μl; and YFP, 60 ng/μl.\nTwo weeks following lentiviral injection, animals (lenti-empty vector+lenti-eGFP (n=9), lenti-G substrate+lenti-eGFP (n=9), or lenti-YFP (n=14)) received three 2.5 μl stereotaxic injections of 3.0 μg/μl 6-OHDA (total dose=22.5 μg 6-OHDA) delivered at a rate of 0.5 μl/min and 5 min wait times after each injection. Striatum injection coordinates were as follows: site 1: AP +1.3, ML −2.8, DV −4.5; site 2: AP +0.2, ML, −3.0, DV −5.0; site 3: AP −0.6, ML −4.0, DV −5.5; and tooth bar set at −3.3. The lesion was allowed to progress for 3 weeks after which animals were sacrificed for post mortem analyses.\nBrains were cut frozen in the coronal plane at a thickness of 40 μm on a sliding microtome and six series of sections were stored in cryoprotectant. Two full series of sections were processed for visualization of tyrosine hydroxylase (TH) via the biotin-labeled antibody procedure. Briefly, following several washes in a PBS solution containing 0.01% Triton X-100 (PBS-T), endogenous peroxidase was quenched in a 3% hydrogen peroxide solution and background staining was then inhibited in a 5% normal goat serum solution. […]", "data": [{"substance": "G-substrate: human wild type G-substrate (SEQ ID NO.: 1) overexpressed from a lentiviral vector", "values": [{"measurement": "DA neuronal protection", "setting": "6-OHDA-lesioned rats", "value": "~10", "unit": "%"}, {"measurement": "transduced DA neurons protected from 6-OHDA-induced toxicity", "setting": "worked out from 22.3% transduction and ˜10% protection", "value": "approximately 50%"}]}]}
